Test results taken from patent publication US20140023611A1 (priority 2010, published 2014).
Each block holds one molecule with its values, some of them ahead of it.

How the values were obtained:
rat NaP2b (SLC34A2) [1] = target: T1, rat NaP2b (SLC34A2) (Rattus norvegicus, UniProt Q9JJ09); assay: Inhibition of NaP2b-mediated Pi (33P) uptake in transfected HEK293 cells, rat NaP2b; format: cell-based; details: 33P Pi uptake, 0.1 mM phosphate, value given as pIC50 range
T1 construct: host or cells: HEK293
T1 sequence (Q9JJ09 1-695): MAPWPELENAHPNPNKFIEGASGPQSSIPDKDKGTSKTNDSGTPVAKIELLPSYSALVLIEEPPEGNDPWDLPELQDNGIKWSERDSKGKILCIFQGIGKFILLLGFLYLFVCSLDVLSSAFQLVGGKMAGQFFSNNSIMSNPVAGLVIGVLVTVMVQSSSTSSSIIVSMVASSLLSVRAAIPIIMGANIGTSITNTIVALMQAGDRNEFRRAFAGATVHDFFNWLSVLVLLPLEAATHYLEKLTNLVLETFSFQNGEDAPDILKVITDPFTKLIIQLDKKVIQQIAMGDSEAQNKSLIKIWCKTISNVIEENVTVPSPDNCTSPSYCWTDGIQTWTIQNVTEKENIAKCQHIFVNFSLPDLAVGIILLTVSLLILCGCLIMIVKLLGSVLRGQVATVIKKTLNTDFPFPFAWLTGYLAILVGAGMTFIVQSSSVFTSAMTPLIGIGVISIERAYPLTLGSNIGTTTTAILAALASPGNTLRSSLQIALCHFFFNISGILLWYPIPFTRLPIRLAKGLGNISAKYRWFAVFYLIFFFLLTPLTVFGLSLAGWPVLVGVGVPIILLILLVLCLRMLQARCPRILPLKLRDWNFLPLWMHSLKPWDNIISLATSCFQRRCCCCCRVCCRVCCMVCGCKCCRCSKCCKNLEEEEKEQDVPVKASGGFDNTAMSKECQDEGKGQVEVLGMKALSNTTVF
In short: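 The cells transiently expressed NaP2b after Lipofectamine transfection. Each compound was run in duplicate over twelve concentrations, 0.1 nM–30 uM.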

[2] = tested on: Uptake of Phosphorus from the Intestine; assay: In vivo bolus phosphorus challenge; set-up: species or system rat; details: Sprague-Dawley rats on low-phosphorus diet; oral Drug Dose 30, 15 min before phosphate bolus; serum 30 min post bolus
Experimental: By pretreating animals with a low phosphorus diet followed by the subsequent dosing of a phosphorus bolus, serum phosphorus levels were monitored after 30 minutes as a surrogate for intestinal phosphorus absorption. […] The in vivo bolus phosphorus challenge model used here mimics this model in rats.
Male, 7-week-old Sprague-Dawley rats (Charles-River laboratories international, Hollister, Calif.) were allowed to acclimatize for a minimum of 3 days before switching to a synthetic low-phosphorus diet (TD.85010, Harlan Teklad, Madison, Wis.) which contains 0.1% phosphorus and 0.6% calcium. At day 5, testing compounds or vehicle alone (as indicated) were orally administered at the indicated dose in a volume of 5 ml/kg, followed by a bolus gavage of monobasic sodium phosphate (1 mmol in 1 ml) 15 min after compound dosing. Serum was collected via retroorbital bleeding 30 min post phosphate bolus and phosphate levels were determined utilizing an ACE ALERA blood chemistry analyzer (Alfa Wassermann Diagnostic Technologies, West Caldwell, N.J.).
The extent of inhibition by test compounds on the elevation of serum phosphate levels in response to the bolus of phosphorus is shown in Table 12 (data are expressed as % Inhibition, with 6-10 animals per data point). The differences between groups were evaluated by one-way analysis of variance with Dunnett's post hoc tests.

NaPi2b [3] = target: T2, NaPi2b (Rattus norvegicus, UniProt Q9JJ09); assay: Competition with phosphate: Pi transport assay repeated at 2.1 vs 0.1 mM phosphate; format: cell-based; details: potency at 2.1 vs 0.1 mM phosphate
T2 construct: host or cells: HEK293
T2 sequence (Q9JJ09 1-695): T1 sequence (Q9JJ09 1-695)
Experimental: (§1) To ascertain if an inhibitor was competitive for binding with phosphate, the procedure was repeated, but raising the concentration of the substrate in the assay mixture from 0.1 to 2.1 mM phosphate.

NaPi2b [4] = assay: Competition with phosphate: Pi uptake assay repeated at 2.1 vs 0.1 mM phosphate; format: cell-based; details: potency at 2.1 vs 0.1 mM phosphate
From the text: For example, a phosphate uptake assay can be performed and the IC50 values for a compound at different phosphate concentrations can be determined (e.g., “Enzyme kinetics”, I. Segel, 1975, John-Wiley & Sons, p. 123). IC50 values for non-competitive inhibitors will remain the same or similar with respect to the phosphate concentration, whereas IC50 values for competitive inhibitors will increase (i.e lose potency) as phosphate concentration increases.
as §1

rat NaP2b (SLC34A2) [5] = target: T1, rat NaP2b (SLC34A2); assay: NaP2b-mediated Pi transport (33P uptake) in transfected HEK293 cells, rat NaP2b; format: cell-based; details: for pIC50 range for rat Nap2b: HEK293, 0.1 mM phosphate
In short: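 HEK293 cells transiently transfected with NaP2b cDNA, endogenous PiT transport suppressed; ^33P-phosphate uptake measured in sodium vs choline buffer (100 uM KH2PO4, pH 7.4) for 3–30 min at room temperature. Twelve concentrations, 0.1 nM–30 uM, in duplicate; uptake by scintillation counting, pIC50 calculated.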

[6] = Stability of compounds in simulated gastric fluid (SGF); format: in vitro ADME; details: simulated gastric fluid (3 mg/mL pepsin), incubation time 6 hr, relative to t=0
In short: (§2)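 Compounds at […] were incubated 3 or 6 hr in USP simulated gastric fluid with 3 mg/mL pepsin or simulated intestinal fluid with 3 mg/mL pancreatin. Remaining compound was quantified by HPLC-UV or HPLC-MS peak area % and reported as percent of the t=0 level in the same medium.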

[7] = Fecal recovery of orally administered compounds; format: in vivo, Sprague-Dawley rats; details: Structure (I) examples, Table 16; rat, oral gavage, feces collected until 48 hr after dosing
From the text: (§3) The animals were kept in metabolic cages and feces were collected from the time of dosing until 48 hr after dosing. Upon collection, feces were dried by lyophilization and ground to a visually homogenous powder. Duplicate samples of ground feces from each individual animal were weighed out and extracted using organic solvent. […] Extraction conditions were not optimized for individual compounds, and thus may represent a minimal level of recovery.
as §3, with “collection, feces was dried by” for “collection, feces were dried by”
as §3, with “collection, feces was dried by” for “collection, feces were dried by”
The animals were kept in metabolic cages and feces were collected from the time of dosing until 48 hr after dosing. Upon collection, feces was dried by lyophilization and ground to a visually homogenous powder. Duplicate samples of ground feces from each individual animal were weighed out and extracted using organic solvent.

[8] = tested on: Uptake of Phosphorus from the Intestine; assay: In vivo co-dosing in chow (urine P out / P consumed); details: Rattus norvegicus, feed or water; rats, compound in chow; mean drug dose 101 mg/kg/day; read-out: Mean % inhibition Urine Pout/P consumed
From the text: Male, 7-week-old Sprague-Dawley rats (Charles-River laboratories international, Hollister, Calif.) were allowed to acclimate for a minimum of 3 days. The experiment was initiated by switching animals to a synthetic diet (0.6% phosphorus and 0.6% calcium, Harlan Teklad TD.84122) for four days. After this time, the animals were placed into metabolic cages for daily monitoring of food and water consumption, as well as urine and fecal collections. Test compounds were incorporated into the powdered diet listed above containing 3% chocolate flavoring (w/w, BioServ #7345) at 1.3 mg test compound per gram of diet to achieve an average daily nominal dose of 100 mg/kg/day. The actual dose received by each animal was later determined by measuring prepared diet consumption and body weight. Urine samples were collected in three daily periods from 24-48, 48-72, and 72-96 hours of drug dosing. Averaging these three 24 h periods allows for the more representative measurements of urination, fecal excretion, food consumption and water uptake for each animal. Phosphorus levels in the urine were determined by anion exchange chromatography using a Dionex ICS-3000 ion chromatography system. Urine samples were diluted 1:500 or 1:1000 and injected onto an IonPac AS18 analytical column (2×250 mm) using a potassium hydroxide eluent. Elution of urine phosphate ions was monitored via conductivity detector and reported as ppm relative to a standard ion solution containing phosphate. Daily urinary P output relative to the P consumed in the prepared diet for each animal was calculated. The percentage inhibition of phosphorus absorption was estimated by determining the reduction of this ratio compared to the control group (animals with no drug in chow). The differences between the means of control and treated groups were evaluated by t tests. In all experiments, one group was always included that had Renvela powder blended into their chow at 0.9% targeting a dose of 750 mg/kg.

[9] = Determination of compound Cmax and AUC after oral gavage (plasma LC-MS/MS); format: in vivo, Sprague-Dawley rats; details: Sprague-Dawley, Structure (I) examples, Table 15, rat, actual oral dose 3-15 mg/kg, plasma 0.5-4 h
In short: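 Plasma exposure measured by LC-MS/MS after acetonitrile precipitation with internal standard, quantified against a standard curve made in plasma. Compound given orally by gavage to Sprague-Dawley rats at nominal 2.5 or 10 mg/kg, with K2EDTA plasma sampled at 0.5, 1, 2 and 4 h.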

[10] = Stability of compounds in simulated intestinal fluid (SIF); format: in vitro ADME; details: simulated intestinal fluid (3 mg/mL pancreatin), incubation time 6 hr, relative to t=0
In short: as §2

[11] = Stability of compounds in simulated gastric and intestinal fluid; format: in vitro ADME; details: Structure (V) examples, Table 3, 3 hr
Experimental: (§4) Test compounds were incubated at 1-20 μM in simulated gastric fluid (SGF; standard USP solution with 3 mg/mL pepsin) or simulated intestinal fluid (SIF; standard USP solution with 3 mg/mL pancreatin) for 3 hr or 6 hr. HPLC-UV or HPLC-MS were used to determine test compound levels using peak area %. Results (Table 5) were reported as the percentage of test compound remaining after incubation in a given condition relative to test compound present at t=0 in the same condition.
as §4, with “3” for “3 hr or 6”, “3)” for “5)”

[12] = Structure (II) examples, Table 2
[13] = Structure (III) examples, Table 2
[14] = Structure (IV) examples, Table 1

pIC50 range for rat Nap2b (rat NaP2b (SLC34A2) [1]): 2-3
Competitive with respect to Pi? (NaPi2b [3]; [12]): Yes
Competitive with respect to Pi? (NaPi2b [3]; [13]): Yes
Competitive with respect to Pi? (NaPi2b [3]; [14]): Yes
pIC50 range for rat Nap2b (rat NaP2b (SLC34A2) [5]; [12]): 2-3
pIC50 range for rat Nap2b (rat NaP2b (SLC34A2) [5]; [13]): 2-3
pIC50 range for rat Nap2b (rat NaP2b (SLC34A2) [5]; [14]): 2-3
SMILES: O=C(O)P(=O)(O)O [PFA]
Competitive with respect to Pi? (NaPi2b [4]): Yes

% remaining, SGF ([11]; simulated gastric fluid): 7%
% remaining, SIF ([11]; simulated intestinal fluid): 90%
IC50 (rat NaP2b (SLC34A2) [5]; Structure (V) examples, Table 2, rat NaP2b, HEK293, read-out: pIC50 Range (converted)): 0.1 to 0.794 µM
SMILES: O=C(O)CNC(=O)CCSCc1cccc(C(=O)Nc2ccc(N3CCCCC3)cc2C(=O)N/N=C/c2ccc(Cl)c(C(F)(F)F)c2)c1 [Ex. 50, (E)-2-(3-(3-(2-(2-(4-chloro-3-(trifluoromethyl)benzylidene)hydrazinecarbonyl)-4-(piperidin-1-yl)phenylcarbamoyl)benzylthio)propanamido)acetic acid]

Continued, molecule first:

SMILES: O=C(O)CCSCc1cccc(C(=O)Nc2ccc(N3CCCCC3)cc2-c2cc(C(=O)NCc3cc(C(F)(F)F)cc(C(F)(F)F)c3)ccn2)c1 [Example 1.32]
IC50 (rat NaP2b (SLC34A2) [1]): 1 to 7.94 µM
% Inhibition of Serum P elevation [2]: 20-30%

SMILES: O=C(NCCN1CCOCC1)c1cccc(C(=O)Nc2ccc(N3CCCCC3)cc2-c2cc(C(=O)NCc3cccc(C(F)(F)F)c3)ccn2)c1 [Example 4.4, N1-(2-Morpholinoethyl)-N3-(4-(piperidin-1-yl)-2-(4-((3-(trifluoromethyl)benzyl)carbamoyl)pyridin-2-yl)phenyl)isophthalamide]
IC50 (rat NaP2b (SLC34A2) [1]): 10 to 31.6 µM
% Inhibition of Serum P elevation [2]: 40-50%

SMILES: CN(CCN1CCOCC1)C(=O)c1cccc(C(=O)Nc2ccc(N3CCCCC3)cc2-c2cc(C(=O)N[C@H]3CCCc4ccccc43)ccn2)c1.Cl [Example 37, (S)—N1-Methyl-N1-(2-morpholinoethyl)-N3-(4-(piperidin-1-yl)-2-(4-((1,2,3,4-tetrahydronaphthalen-1-yl)carbamoyl)pyridin-2-yl)phenyl)isophthalamide]
% remaining, SGF [6]: >80%
Competitive with respect to Pi? (NaPi2b [4]): No
% recovered in feces [7]: <20%
inhibition in vivo at 101 mg/kg/day [8]: ≤ 10%
AUC [9]: < 30 ng·h/mL
Cmax [9]: < 10 ng/mL
% remaining, SIF [10]: >80%
